Measurements reported in ChEMBL document CHEMBL5728583, “Galactoside inhibitor of galectins” (2021).

Legend:
Galectin-1 = Galectin-1 (Homo sapiens, UniProt P09382); test: fluorescence anisotropy assay: The affinity of Example 1-33 for galectins were determined by a fluorescence anisotropy assay where the compound was used as an inhibitor of the interaction between galectin and a fluorescein tagged saccharide probe as described Sörme, P., Kahl-Knutsson, B., Huflejt, M., Nilsson, U. J., and Leffler H. (2004) Fluorescence polarization as an analytical tool to …
Sequence of Galectin-1 (P09382 whole entry): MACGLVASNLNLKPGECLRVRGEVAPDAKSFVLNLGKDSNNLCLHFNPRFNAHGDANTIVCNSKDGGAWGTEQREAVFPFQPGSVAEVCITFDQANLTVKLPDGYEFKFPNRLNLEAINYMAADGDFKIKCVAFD

Galectin-3 = Galectin-3 (Homo sapiens, UniProt P17931); test: fluorescence anisotropy assay: The affinity of Example 1-33 for galectins were determined by a fluorescence anisotropy assay where the compound was used as an inhibitor of the interaction between galectin and a fluorescein tagged saccharide probe as described Sörme, P., Kahl-Knutsson, B., Huflejt, M., Nilsson, U. J., and Leffler H. (2004) Fluorescence polarization as an analytical tool to evaluate galectin-ligand interactions. Anal. Biochem. 334: 36-47, (Sörme et al., 2004) and Monovalent interactions of Galectin-1 By Salomonsson, Emma; Larumbe, Amaia; Tejler, Johan; Tullberg, Erik; Rydberg, Hanna; Sundin, Anders; Khabut, Areej; Frejd, Torbjorn; Lobsanov, Yuri D.; Rini, James M.; et al, From Biochemistry (2010), 49(44), 9518-9532, (Salomonsson et al., 2010).
Sequence of Galectin-3 (P17931 whole entry): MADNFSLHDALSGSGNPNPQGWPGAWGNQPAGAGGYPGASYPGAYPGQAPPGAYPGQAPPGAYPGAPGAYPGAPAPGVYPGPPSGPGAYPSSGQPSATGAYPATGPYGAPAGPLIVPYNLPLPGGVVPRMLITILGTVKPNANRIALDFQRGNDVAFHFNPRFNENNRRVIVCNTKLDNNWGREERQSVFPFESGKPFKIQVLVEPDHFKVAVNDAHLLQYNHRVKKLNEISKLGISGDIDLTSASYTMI

Kd (Galectin-1): 650 nM
Kd (Galectin-3): 1700 nM
Compound: OC[C@H]1O[C@H](Sc2ccc(Cl)c(Cl)c2)[C@H](O)[C@@H](n2cc(-c3nc(O)cs3)nn2)[C@H]1O
